US20210253635A1, “PEPTIDIC PROTEIN KINASE C INHIBITORS AND USES THEREOF” (UNIVERSITE DE GENEVE, priority 2018, published 2021)
Ends that are not written are not given here. * marks the point of attachment. Myristoyl = CCCCCCCCCCCCCC(=O)*

Tests used:
[1] = system: non-small cell lung cancer (NSCLC); conditions: NSCLC patients, compared to chemotherapies, before resistance appears; cited from earlier work
[2] = system: nasal epithelial monolayers (Mucilair human primary nasal epithelial cells); assay: FITC insulin permeabilization (apical to basolateral) across epithelial monolayer; format: cell-based; conditions: peptide 50 μM, apical side, compared to control (vehicle), FIG. 2
Text: To assess the potential effects of peptides of the invention on the permeabilization of therapeutic molecules, FITC Insulin (Sigma-Aldrich, Buchs SG, Switzerland) is used as a model for assessing paracellular drug transport (apical to basolateral) across the epithelial monolayer.
Mucilair™ human primary nasal and bronchial epithelial cells (Epithelix sarl, Geneva, Switzerland) and Caco-2 human intestinal epithelial cells are used (Huang et. al., 2013, Toxicol. in Vitro 27: 1151-1156).
Before each experiment, the culture medium is removed from each compartment and the monolayer is washed once with 200 μl of saline (0.9%) and once with warm Hanks' Balanced Salt Solution (HBSS) (37° C.). In the basolateral compartment, 600 μL of pre-warmed HBSS is placed and the cells are returned to the incubator at 37° C. for 30 minutes to equilibrate. After equilibration, the peptides of the invention and the paracellular marker (FITC insulin) are applied to the apical side of an epithelial monolayer. Peptides P4 (SEQ ID NO: 2) and P3 (SEQ ID NO: 4) according to the invention are tested in comparison with a comparative peptide CP4 (SEQ ID NO: 3).
All peptides are used at a final concentration of 50 μM. The vehicle is used as a control (CTRL). The FD solution is added to the apical compartment to make a final volume of 200 μl. […] The fluorescence of FD is measured in black 96-well plates using a fluorescence plate reader (BioTek Synergy Mx plate reader, BioTek Instruments GmbH, Lucerne, Switzerland), using excitation and emission wavelengths of 485 and 520 nm, respectively. Cumulative release (ng) corresponds to the actual amount of drug released cumulatively and corresponds to the amount in the suspension medium at any time plus the amount of the drug lost during each sampling.

[3] = system: Mucilair human primary nasal epithelial cells; assay: Trans-epithelial electrical resistance (TEER), epithelial integrity; format: cell-based; conditions: peptide 100 μM, apical, FIG. 1
Procedure: Trans-epithelial electrical resistance (TEER): After addition of 200 μl of culture medium to the apical compartment of the tissue cultures, resistance is measured across cultures with an EVOMX volt-ohm-meter (World Precision Instruments UK, Stevenage) in triplicate for each time point. The TEER values (Ω) is converted normalized by using the following formula: TEER (Ω cm^2)=(resistance value (Ω)−100 (Ω))×0.33 (cm^2), where 100Ω is the resistance of the membrane and 0.33 cm^2 is the total surface of the epithelium.
To assess the potential effects of peptides of the invention on the epithelial integrity, transepithelial electrical resistance in the presence of a peptide of the invention is measured. Trans-epithelial electrical resistance (TEER) was measured as in Example 2 except that volt-ohm-meter was equipped with STX-2 chopstick electrodes (WPI, Sarasota, Fla., USA). Mucilair™ human primary nasal epithelial cells were used as in Example 2 (from single donor; EP01-Batch number MD069201). The peptide P4 (SEQ ID NO: 2) and comparative peptide […] both at a concentration of 100 μM in Mucilair™ medium and control solution (i.e., 50 μl of saline+50 μl of Mucilair™ medium) were administered to the apical compartment of the tissue cultures at the begging of the experiment (t=0) and the measurements were made after 20, 40, 60 and 80 minutes (t=20 min, t=40 min, t=60 min and t=80 min) of the incubation. All TEER values are expressed as percentage relative to control (the baseline value was 242 Ω*cm^2). All the experiments were performed at least 2 times (test 1 and 2).

COc1cc2ncnc(Nc3ccc(F)c(Cl)c3)c2cc1OCCCN1CCOCC1 [Gefitinib, N-(3-Chloro-4-fluorophenyl)-7-methoxy-6-(3-morpholinopropoxy) quinazolin-4-amine]
progression free survival (PFS) [1]: 7.7-12.9 months

Myr-AKRWR (Myristoyl-AKRWR) [CP4, comparative peptide, L-amino acid version of P4, reference compound]
permeabilization of FITC-conjugated insulin (cumulative release) [2]: slightly increased the permeabilization

Myr-D-Ala D-Arg D-Arg D-Trp D-Arg [Peptide P3]
permeabilization of FITC-conjugated insulin (cumulative release) [2]: increased the permeabilization of insulin FITC to a much larger extend than the control peptide CP4

Myr-D-Ala D-Lys D-Arg D-Trp D-Arg [Peptide P4]
permeabilization of FITC-conjugated insulin (cumulative release) [2]: increased the permeabilization of insulin FITC to a much larger extend than the control peptide CP4 | TEER values (percentage relative to control) ([3]; t=20 min): decreased TEER values as compared to control solution and comparative peptide P4 (CP4) | TEER values (percentage relative to control) ([3]; t=40 min and t=60 min): this effect persisted | TEER values (percentage relative to control) ([3]; t=80 min): TEER values increased as compared to values measured at previous time points
